Assay results reported in article PMC11929074, “An in vitro platform for the enzymatic characterization of the rhomboid protease RHBDL4” (The Journal of Biological Chemistry, 2025).
*1 amine or outer side, *2 acyl side, *3 side chain or, on linkers, in order; H or OH if unused. Where a SMILES comes first, the peptide text is derived from it. [ ]: non-standard residue; d: D form. The star is where a group is joined. NH(4-phenylbutyl) = c1ccc(CCCCN*)cc1; X1 = C[C@H](N[*:1])C(=O)C(=O)[*:2]

Tests used:
[1] = test system: WT RHBDL4 (recombinant, purified); assay: TAMRA-FP competition labelling on recombinant RHBDL4; type: binding, human; settings: in-gel Cy3 fluorescence, compared with inactive RHBDL4-S144A control
Source text: (§1) B, schematic representation of the peptidyl-α-ketoamide scaffold with peptide sequence P5-P1 at the nonprime side and hydrophobic substituent (R) at the prime side. C, schematic representation of the peptidyl-α-ketoamide inhibitor, compound 1a/1b. D, representative inhibition curve derived from measuring rates of RHBDL4 proteolysis of the fluorescent substrate IQ6 with increasing concentrations of compound 1a. E, same as (D), except inhibition curve was derived from using increasing concentrations of compound 1b. […] Reactions were quenched with 1 keLaemmli buffer and loaded on 12% SDS-PAGE gel. Post-transfer membranes were visualized using a fluorescence Cy3 filter and by Western blotting using an α-His antibody. For (A, D, and E), all inhibitors were pre-incubated with RHBDL4 for 1 h and allowed to react with the IQ6 substrate for 2 h.
(§2) B, representative inhibition curve derived from measuring rates of RHBDL4 proteolysis of the fluorescent substrate IQ6 with increasing concentrations of compound 3. C, same as (B), except inhibition curve was derived from using increasing concentrations of compound 4. […] Reactions were quenched with 1 RLaemmli buffer and loaded on 12% SDS-PAGE gel. Post-transfer membranes were visualized using a fluorescence Cy3 filter and by Western blotting using an α-His antibody. E, saturation curve of RHBDL4 using fluorescent substrate, KSp207. For (B and C), all inhibitors were pre-incubated with RHBDL4 for 1 h and allowed to react with the IQ6 substrate for 2 h. […] I assigned them to the substrate KSp207, which is named on the x-axis and in the inset table.

[2] = target: T1, recombinant human RHBDL4 (Homo sapiens, UniProt Q8TEB9); assay: Inhibition of RHBDL4 proteolysis of IQ6 (FRET-based in vitro assay); type: biochemical; settings: IQ6 substrate; for inhibition of RHBDL4 proteolytic activity: increasing concentrations, 1 h pre-incubation, 2 h reaction, n = 3
T1 construct: The entire RHBDL4 and RHBDL4-S144A cDNAs were subcloned into the pcDNA3.1 vector; 6xHis (C, cleaved yes); made in house; host or cells: Freestyle 293-F cells (transient transfection, pcDNA3.1-HisA)
T1 sequence (Q8TEB9 1-315): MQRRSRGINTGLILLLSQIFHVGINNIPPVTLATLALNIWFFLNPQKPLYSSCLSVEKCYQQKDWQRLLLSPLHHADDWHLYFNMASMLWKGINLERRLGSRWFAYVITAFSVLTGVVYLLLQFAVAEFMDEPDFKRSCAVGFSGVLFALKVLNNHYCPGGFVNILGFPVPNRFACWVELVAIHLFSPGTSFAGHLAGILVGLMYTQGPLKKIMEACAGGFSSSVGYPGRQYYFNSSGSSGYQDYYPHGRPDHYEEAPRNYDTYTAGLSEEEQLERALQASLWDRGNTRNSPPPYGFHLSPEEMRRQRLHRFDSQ
Source text: as §1, §2
(§3) The enzymatic assay was performed as previously described (Arutyunova et al., 2014, ([26])). […] The FRET-based cleavage assay was conducted in a fluorescence multiwell plate reader (SynergyMx, BioTek). Upon excitation at 320 nm, the emission intensity at 400 nm was recorded for 2 h at minimal intervals under shaking conditions and plotted using the GraphPad PRISM software. The initial velocities were defined as the slopes of the curve of the generated product as a function of time. The plots of the generated product against the corresponding substrate concentration were fitted with the Michaelis–Menten equation. Catalytic parameters were extrapolated using GraphPad PRISM. […] The samples were desalted using C18 tips (Rainin), eluted in 80% acetonitrile, and dried down in a vacuum centrifuge prior to mass spectrometry analysis.

[3] = target: T1, recombinant human RHBDL4; assay: FRET-based cleavage assay with fluorescent (IQ / KSp207) substrates; type: biochemical; settings: for kcat / pH of highest RHBDL4 protease activity / salt concentration range with satisfactory activity: triplicate; for kcat: average ± S.E.M.; for pH of highest RHBDL4 protease activity: pH range 5 to 10; for salt concentration range with satisfactory activity: salt tested 100 to 300 mM
Description: Figure 2 Kinetic characterization of recombinant human RHBDL4.A, schematic representation of the FRET-based cleavage assay using internally quenched (IQ) substrates. B, saturation curves of RHBDL4 using the fluorescent IQ substrates, IQ6, IQ41, and IQ46. C, pH dependence of the RHBDL4 protease activity using substrates IQ6, IQ41, and IQ46. D, salt concentration dependence of the RHBDL4 protease activity using substrates IQ6, IQ41, and IQ46. All the assays were performed in triplicate, and data points are represented by the average ± S.E.M. TEXT PRINTED IN THE PICTURE: (B) IQ 6: KM(μM) 10.73±2; Kcat(hr^-1) 7.33±0.6 | (B) IQ 41: KM(μM) 5.63±2; Kcat(hr^-1) 2.41±0.6 | (B) IQ 46: KM(μM) 7.19±1; Kcat(hr^-1) 3.62±0.8
(§4) The reaction setup in our FRET assay enabled the direct determination of Michaelis–Menten kinetic parameters Km and kcat for the cleavage of IQ6, IQ41, and IQ46 by RHBDL4. Our fluorescence reading data were converted to μM/h using the standard calibration curve for all three IQ substrates, and the correction factor for the inner filter effect was applied. We confirmed that purified RHBDL4 followed Michaelis–Menten kinetics with KmIQ6=10.73±2μΜ , KmIQ41=5.63±2μΜ , and KmIQ46=7.19±1μΜ and kcatIQ6=7.33±0.6h^−1 , kcatIQ41=2.41±0.6h^−1 , and kcatIQ46=3.62±0.08h^−1 (Figs. 2B and S2B).
Our FRET-based assay is a suitable platform for optimizing conditions that enhance RHBDL4 protease activity. To this end, we selected the optimal pH for RHBDL4 protease activity and performed FRET-based assays with IQ6, IQ41, and IQ46 at a pH range of 5 to 10. […] The optimal salt concentration for the RHBDL4 protease activity was also tested in the range of 100 to 300 mM (Fig. 2D). We conclude that with the IQ6, IQ41, and IQ46 substrates, RHBDL4 had satisfactory activity in a salt concentration range of 100 to 300 mM.
as §2, with “Figure 5 In vitro inhibition of RHBDL4 activity with TMED7-derived peptidyl α-ketoamides.A, schematic representation of the peptidyl-α-ketoamide inhibitor, compound 3 and 4. B,” for “B,”
as §3
All the calculations for Km, Vmax, and Kcat for RHBDL4 and its mutants were performed using GraphPad PRISM.

[4] = test system: RHBDL4-S144A; assay: FRET-based cleavage by inactive RHBDL4-S144A; type: biochemical, human; settings: pH 8, 37 °C
Source text: as §4
Figure 3 Dependence of conserved rhomboid motifs on RHBDL4 protease activity.A, RHBDL4 representation highlighting TM1–6 (in green), the VBM- and UIM-binding motifs (in blue), the conserved rhomboid motifs (WR and Gx3G), and the serine-histidine catalytic dyad (in pink). The table indicates the RHBDL4 region, the conserved rhomboid motifs, and amino acid mutation. The RHBDL4 proteolytic activity. B, size-exclusion chromatography profile of RHBDL4-AR and RHBDL4-Ax3G, being eluted as a monomeric protein. C, coomassie staining and Western blotting using an α-His antibody of concentrated purified RHBDL4-AR and RHBDL4-Ax3G. D, activity profiles of the WT RHBDL4 and mutant RHBDL4-S144A, RHBDL4-AR, and RHBDL4-Ax3G proteins, as measured by cleavage of the fluorescent substrate IQ6. Assay was performed in triplicate (n = 3), and data points are represented by the average ± S.E.M. Statistically significant differences compared to WT RHBDL4 are indicated (pairwise Dunnett's test followed by Bonferroni's post hoc analysis; ∗p < 0.05, n.s., no significance).
The enzymatic assay was performed as previously described (Arutyunova et al., 2014, ([26])). […] The FRET-based cleavage assay was conducted in a fluorescence multiwell plate reader (SynergyMx, BioTek). Upon excitation at 320 nm, the emission intensity at 400 nm was recorded for 2 h at minimal intervals under shaking conditions and plotted using the GraphPad PRISM software. […]

[5] = target: T2, WT RHBDL4 (human rhomboid protease RHBDL4, recombinant) (human) (UniProt Q8TEB9)
T2 sequence: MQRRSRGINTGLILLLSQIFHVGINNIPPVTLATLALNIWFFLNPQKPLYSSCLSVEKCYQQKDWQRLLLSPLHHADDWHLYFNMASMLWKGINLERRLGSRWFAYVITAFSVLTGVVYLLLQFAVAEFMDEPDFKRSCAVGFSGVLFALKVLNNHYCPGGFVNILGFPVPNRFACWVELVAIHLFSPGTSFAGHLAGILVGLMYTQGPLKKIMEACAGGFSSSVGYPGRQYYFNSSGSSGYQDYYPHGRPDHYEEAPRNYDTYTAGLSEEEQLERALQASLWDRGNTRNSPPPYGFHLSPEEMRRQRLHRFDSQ

[6] = Michaelis-Menten, 1.5 μM RHBDL4, 37 °C, 2 h, pH 8.0, 150 mM NaCl, 0.1% DDM

CC(=O)N[C@H](C(=O)N[C@@H](CCCNC(=N)N)C(=O)NC(Cc1c[nH]cn1)C(=O)N[C@@H](C)C(=O)C(=O)N[C@H](COCc1ccccc1)Cc1ccccc1)C(C)C (stereo partly shown) [compound 1b]
competition with TAMRA-FP probe (fluorescent signal) [1]: significant reduction of fluorescent signal

Cl.NCCc1ccc(S(=O)(=O)F)cc1 [4-(2-aminoethyl) benzenesulfonyl fluoride hydrochloride]
inhibition of RHBDL4 proteolytic activity [2]: weak inhibition at all concentrations tested

CC(=O)N1CCC[C@H]1C(=O)NCC(=O)N[C@@H](Cc1ccccc1)C(=O)N[C@@H](CO)C(=O)N[C@@H](C)C(=O)C(=O)NCCCCc1ccccc1 [compound 2] (Ac-PGFS[X1]-{NH(4-phenylbutyl)})
IC50 ([2]; inhibitor pre-incubated with RHBDL4 for 1 h, then reacted with IQ6 for 2 h, n = 3, average ± S.E.M.): 3.4 ± 1.2 µM

Cc1ccc(S(=O)(=O)N[C@@H](Cc2ccccc2)C(=O)CCl)cc1 [N-p-tosyl-L-phenylalanine chloromethyl ketone]
inhibition of RHBDL4 proteolytic activity [2]: weak inhibition at all concentrations tested

Ac-QMESA-4mc [KSp207, TMED7-derived fluorescent substrate Ac-QMESA-4mc]
cleavage rate/efficiency relative to other substrates ([3]; FRET-based assay): higher enzymatic cleavage efficiency than IQ6
kcat [3, 6]: 0.003069 ± 0.00022 s⁻¹
catalytic rate (cleavage rate) ([3]; approximate, discussion): ~11 h⁻¹

CC(=O)N[C@H](C(=O)N[C@@H](CCCNC(=N)N)C(=O)NC(Cc1c[nH]cn1)C(=O)N[C@@H](C)C(=O)C(=O)N[C@H](COCc1ccccc1)Cc1ccccc1)C(C)C (stereo partly shown) [compound 1a]
competition with TAMRA-FP probe (fluorescent signal) [1]: significant reduction of fluorescent signal

mca-FLVRGK(dnp) [IQ46, fluorescent internally quenched substrate mca-FLVRGK(dnp)]
kcat ([3]; 37 °C, pH 8.0): 0.00101 ± 0.00022 s⁻¹
kcat [3, 6]: 0.00101 ± 2.2e-05 s⁻¹
pH of highest RHBDL4 protease activity [3]: 8
salt concentration range with satisfactory activity [3]: 100 to 300 mM
cleavage by inactive RHBDL4-S144A (increase in fluorescence / activity) [4]: negligible increase in fluorescence

compound 1a (peptidyl α-ketoamide, Ac-VRHA-CONH-CH(Bn)-CH2OBn) (peptide)
IC50 of inhibition of RHBDL4 proteolysis of the fluorescent substrate IQ6 (in vitro FRET-based activity assay; 1 h pre-incubation, 2 h reaction) [5]: 2.31 µM

O=c1oc(Cl)c(Cl)c2ccccc12 [3,4-dichloroisocoumarin]
inhibition of RHBDL4 proteolytic activity [2]: inhibited the RHBDL4 proteolytic activity only at higher concentrations (100 μM)

mca-FVTKGK(dnp) [IQ41, fluorescent internally quenched substrate mca-FVTKGK(dnp)]
kcat ([3]; 37 °C, pH 8.0): 0.000669 ± 0.00017 s⁻¹
kcat [3, 6]: 0.000669 ± 0.00017 s⁻¹
pH of highest RHBDL4 protease activity [3]: 7
salt concentration range with satisfactory activity [3]: 100 to 300 mM
cleavage by inactive RHBDL4-S144A (increase in fluorescence / activity) [4]: negligible increase in fluorescence

compound 1b (peptidyl α-ketoamide, Ac-VRHA-CONH-CH(Bn)-CH2OBn) (peptide)
IC50 of inhibition of RHBDL4 proteolysis of the fluorescent substrate IQ6 (in vitro FRET-based activity assay; 1 h pre-incubation, 2 h reaction) [5]: 6.1 µM

Ac-PGFSA-{α‑ketoamide CONH‑(CH2)4‑Ph} [compound 2 (IQ6-derived peptidyl α-ketoamide, Ac-PGFSA-CONH-(CH2)4-Ph)]
IC50 of inhibition of RHBDL4 activity (in vitro FRET-based activity assay) [5]: 3.4 µM
